Reference: US10266526B2, “Substituted 1,2,3-triazoles as SMYD inhibitors for treating cancer” (EPIZYME, INC., priority 2014, dated 2019)
Structures can show the parent of a compound that is named as a salt.

Tests used:
[1] = target: T1, SMYD3 (Homo sapiens (Human), UniProt Q9H7B4); assay: SMYD3 biochemical assay (SMYD3 enzyme assay on MEKK2 protein substrate, 3H-SAM scintillation proximity assay); conditions: read-out: SMYD3 Biochem IC50
In short: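 Native full-length human SMYD3, expressed in E. coli, was preincubated with compound for 30 min at room temperature in 25 mM Tris-Cl pH 8.0, 1 mM TCEP, 0.005% BSG and 0.005% Tween 20. ³H-SAM plus GST-MEKK2 then started the reaction. It was stopped with unlabeled SAM (100 uM final), and methylated MEKK2 was read by SPA.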

[2] = target: T1, SMYD3; assay: SMYD3 cell assay (Trimethyl-MEKK2 In-Cell Western in 293T/17 cells transfected with MEKK2-flag and SMYD3); format: cell-based; conditions: Table 3A; average of n = 1 to n = 50; read-out: SMYD3 cell IC50
Excerpt: Trimethyl-MEKK2-in-Cell Western Assay
MEM/Glutamax medium, Optimem Reduced Serum medium, penicillin-streptomycin, 0.05% trypsin and 1×D-PBS were purchased from Life Technologies, Grand Island, N.Y., USA. PBS-10× was purchased from Ambion, Life Technologies, Grand Island, N.Y., USA. PBS with Tween 20 (PBST (10×)) was purchased from KPL, Gaithersburg, Md., USA. Tet System FBS-approved FBS US Source was purchased from Clontech, Mountain View, Calif., USA. Odyssey blocking buffer, 800CW goat anti-rabbit IgG (H+L) antibody, 680CW Goat anti-mouse IgG (H+L) and Licor Odyssey infrared scanner were purchased from Licor Biosciences, Lincoln, Nebr., USA. Tri-methyl-Lysine [A260]-MEKK2 antibody, MEKK2 and SMYD3 plasmids were made at Epizyme. Anti-flag monoclonal mouse antibody was purchased from Sigma, St. Louis, Mo., USA. Methanol was purchased from VWR, Franklin, Mass., USA. 10% Tween 20 was purchased from KPL, Inc., Gaithersburg, Md., USA. Fugene was purchased from Promega, Madison, Wis., USA. The Biotek ELx405 was purchased from BioTek, Winooski, Vt., USA. The multidrop combi was purchased from Thermo Scientific, Waltham, Mass., USA.
Cell Treatment, in Cell Western (ICW) for Detection of Trimethyl-Lysine-MEKK2 and MEKK2.
Plasmids were prepared for delivery to cells by first mixing 1350 μL Opti-MEM with Fugene (81 μL) in a sterile Eppendorf and incubated for five minutes at room temperature (RT). […] Entire volume of Opti-MEM/Fugene mixture was then added to a microfuge tube containing DNA plasmid, mixed and then incubated ×15 minutes at RT. […] Medium was then removed, and cells were washed once with PBS in the flask. Trypsin 0.05% (3 mL) was added and cells incubated for three minutes. Room temperature MEM+10% Tet system FBS was added and cells were mixed gently, and counted using the Vi-cell. Cells were seeded at 100,000 cells/mL in 50 μL MEM/10% Tet FBS/Pen/Strep to a 384 well black/clear poly-D-lysine coated plate containing test agent diluted in DMSO. The final top concentration of test compound was 40 μM. […] Plates were incubated ×30 minutes at RT in low-airflow area, followed by incubation at 37° C. under 5% CO2 for 24 hours. Medium was aspirated from all wells of assay plates prior to fixation and permeabilization with ice cold (−20° C.) methanol (90 μL/well) for ten minutes. Plates were rinsed with PBS three times on BioTek ELx405. PBS was removed with a final aspiration, and Odyssey blocking buffer (50 μL/well) was added to each well and incubated for one hour at RT. Primary antibody solution was prepared (anti-trimethyl-MEKK2 at 1:600 dilution plus mouse anti-flag antibody at 1:10,000 dilution in diluent (Odyssey Blocking buffer+0.1% Tween 20)) and 20 μL per well was dispensed using the Multidrop Combi. Assay plates were then sealed with foil, and incubated overnight at 4° C. Plates were washed five times with PBS-Tween (1×) on Biotek ELx405 and blotted on paper towel to remove excess reagent.
First, the ratio for each well was determined by:
Each plate included fourteen control wells of DMSO only treatment (Minimum Inhibition) as well as fourteen control wells for maximum inhibition (Background). The average of the ratio values for each control type was calculated and used to determine the percent inhibition for each test well in the plate. Reference compound was serially diluted two-fold in DMSO for a total of nine test concentrations, beginning at 40 μM. Percent inhibition was calculated (below).
Non-linear regression curves were generated to calculate the IC50 and dose-response relationship using triplicate wells per concentration of compound.

[3] = Table 3A, average of n = 1 to n = 50

T1 sequence (Q9H7B4 whole entry): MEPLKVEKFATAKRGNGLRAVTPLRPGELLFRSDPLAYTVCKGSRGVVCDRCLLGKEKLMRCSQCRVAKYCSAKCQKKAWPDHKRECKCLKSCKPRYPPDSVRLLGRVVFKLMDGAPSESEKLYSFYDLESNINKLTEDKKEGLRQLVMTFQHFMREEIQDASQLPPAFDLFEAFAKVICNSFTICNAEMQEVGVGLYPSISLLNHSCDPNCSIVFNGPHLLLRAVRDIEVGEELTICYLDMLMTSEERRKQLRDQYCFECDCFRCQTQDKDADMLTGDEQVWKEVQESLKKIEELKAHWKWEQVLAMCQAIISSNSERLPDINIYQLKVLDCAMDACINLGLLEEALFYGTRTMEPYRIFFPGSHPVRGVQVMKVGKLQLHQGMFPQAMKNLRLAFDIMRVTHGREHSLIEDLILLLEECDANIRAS

Compound	IC50 [1, 3]	IC50 [2]	IC50 [1]
C[C@H]1C[C@@H](NC(=O)c2ccc3c(c2)CC(=O)N3)CCN1S(=O)(=O)N1CCC(N)CC1 [compound 580, N-((2S,4S)-1-((4-aminopiperidin-1-yl)sulfonyl)-2-methylpiperidin-4-yl)-2-oxoindoline-5-carboxamide]	0.0009 µM	1.64 µM	
NC1CCN(S(=O)(=O)N2[C@@H]3CC[C@H]2C[C@@H](NC(=O)c2cc(C4CC4)[nH]n2)C3)CC1 [compound 633, N-((1R,3r,5S)-8-((4-aminopiperidin-1-yl)sulfonyl)-8-azabicyclo[3.2.1]octan-3-yl)-5-cyclopropyl-1H-pyrazole-3-carboxamide]	0.529 µM	≥ 10 µM	
CCc1cc(C(=O)N[C@H]2CCN(S(=O)(=O)N3CCC(N)CC3)[C@@H](C)C2)ns1 [compound 605, N-((2S,4S)-1-(4-aminopiperidin-1-ylsulfonyl)-2-methylpiperidin-4-yl)-5-ethyl-1,2-thiazole-3-carboxamide Hydrochloride]		0.201 µM	0.0154 µM
O=C1Cc2cc(C(=O)N[C@H]3C[C@H]4CC[C@@H](C3)N4S(=O)(=O)CC3CCN(CCCO)CC3)c(Cl)cc2N1 [compound 585, 6-chloro-N-((1R,3r,5S)-8-(((1-(3-hydroxypropyl)piperidin-4-yl)methyl)sulfonyl)-8-azabicyclo[3.2.1]octan-3-yl)-2-oxoindoline-5-carboxamide]	0.00173 µM	0.764 µM	
CC(=O)Nc1ccc(S(=O)(=O)N2CC[C@H](NC(=O)c3ccc4c(c3)CC(=O)N4)C[C@@H]2C)cc1 [compound 632, N-((2S,4S)-1-(4-acetamidophenylsulfonyl)-2-methylpiperidin-4-yl)-2-oxoindoline-5-carboxamide]	0.526 µM	≥ 10 µM	
NC1CCN(S(=O)(=O)N2[C@@H]3CC[C@H]2C[C@@H](NC(=O)c2nnc(C4CC4)s2)C3)CC1 [compound 618, N-((1R,3r,5S)-8-((4-aminopiperidin-1-yl)sulfonyl)-8-azabicyclo[3.2.1]octan-3-yl)-5-cyclopropyl-1,3,4-thiadiazole-2-carboxamide]	0.0558 µM	0.348 µM	
O=C1Cc2cc(C(=O)N[C@H]3C[C@H]4CC[C@@H](C3)N4S(=O)(=O)CC3CCNCC3)c(Cl)cc2N1 [compound 596, 6-chloro-2-oxo-N-((1R,3r,5S)-8-((piperidin-4-ylmethyl)sulfonyl)-8-azabicyclo[3.2.1]octan-3-yl)indoline-5-carboxamide]	0.0036 µM	2.66 µM	
NCCCS(=O)(=O)N1CCC(NC(=O)c2ccc3c(c2)CC(=O)N3)CC1 [compound 624, N-(1-((3-aminopropyl)sulfonyl)piperidin-4-yl)-2-oxoindoline-5-carboxamide]	0.159 µM	≥ 10 µM	
NCCCS(=O)(=O)N1CCC(NC(=O)c2cc3c(cc2Cl)NC(=O)C3)CC1 [compound 621, N-(1-((3-aminopropyl)sulfonyl)piperidin-4-yl)-6-chloro-2-oxoindoline-5-carboxamide]	0.0775 µM	6.84 µM	
NC1CCN(S(=O)(=O)N2[C@@H]3CC[C@H]2C[C@@H](NC(=O)c2ccc4c(c2)OC(F)(F)O4)C3)CC1 [compound 626, N-((1R,3r,5S)-8-((4-aminopiperidin-1-yl)sulfonyl)-8-azabicyclo[3.2.1]octan-3-yl)-2,2-difluorobenzo[d][1,3]dioxole-5-carboxamide]	0.222 µM	2.97 µM	
C[C@H]1C[C@@H](NC(=O)c2cc3c(cc2Cl)NC(=O)C3)CCN1S(=O)(=O)N1CCC(N)CC1 [compound 582, N-((2S,4S)-1-((4-aminopiperidin-1-yl)sulfonyl)-2-methylpiperidin-4-yl)-6-chloro-2-oxoindoline-5-carboxamide]	0.00098 µM	0.814 µM	
CC(C)(N)c1ccc(S(=O)(=O)N2[C@@H]3CC[C@H]2C[C@@H](NC(=O)c2ccc4c(c2)CC(=O)N4)C3)cc1 [compound 612, N-((1R,3r,5S)-8-((4-(2-aminopropan-2-yl)phenyl)sulfonyl)-8-azabicyclo[3.2.1]octan-3-yl)-2-oxoindoline-5-carboxamide]	0.0307 µM	2.53 µM	
CN(C)C1CCN(S(=O)(=O)N2[C@@H]3CC[C@H]2C[C@@H](NC(=O)c2ccc4c(c2)CC(=O)N4)C3)CC1 [compound 593, N-((1R,3r,5S)-8-((4-(dimethylamino)piperidin-1-yl)sulfonyl)-8-azabicyclo[3.2.1]octan-3-yl)-2-oxoindoline-5-carboxamide]	0.00289 µM	0.5 µM	
N[C@H]1CC[C@H](C(=O)N2[C@@H]3CC[C@H]2C[C@@H](NC(=O)c2ccc4c(c2)CC(=O)N4)C3)CC1 [compound 638, N-((1R,3R,5S)-8-((1r,4R)-4-aminocyclohexane-1-carbonyl)-8-azabicyclo[3.2.1]octan-3-yl)-2-oxoindoline-5-carboxamide]	0.962 µM	≥ 10 µM	
C[C@@H]1CN(S(=O)(=O)N2CCC(N)CC2)CC[C@H]1NC(=O)c1cc2c(cc1Cl)NC(=O)C2 [compound 608, N-((3R,4R)-1-((4-aminopiperidin-1-yl)sulfonyl)-3-methylpiperidin-4-yl)-6-chloro-2-oxoindoline-5-carboxamide]	0.0214 µM	6.24 µM	
CCc1cnnc(C(=O)N[C@H]2CCN(S(=O)(=O)N3CCC(N)CC3)[C@@H](C)C2)c1 [compound 619, N-((2S,4S)-1-((4-aminopiperidin-1-yl)sulfonyl)-2-methylpiperidin-4-yl)-5-ethylpyridazine-3-carboxamide]	0.0596 µM	0.468 µM	
CN1CCC(CS(=O)(=O)N2[C@@H]3CC[C@H]2C[C@@H](NC(=O)c2ccc4c(c2)CC(=O)N4)C3)CC1 [compound 577, N-((1R,3r,5S)-8-(((1-methylpiperidin-4-yl)methyl)sulfonyl)-8-azabicyclo[3.2.1]octan-3-yl)-2-oxoindoline-5-carboxamide]		0.481 µM	0.00067 µM
C[C@H]1C[C@@H](NC(=O)c2ccc3c(c2)CC(=O)N3)CCN1S(=O)(=O)CC1CCNCC1 [compound 599, N-((2S,4S)-2-methyl-1-((piperidin-4-ylmethyl)sulfonyl)piperidin-4-yl)-2-oxoindoline-5-carboxamide]	0.00442 µM	9.49 µM	
CN1C(=O)Cc2cc(C(=O)N[C@H]3C[C@H]4CC[C@@H](C3)N4S(=O)(=O)CC3CCNCC3)ccc21 [compound 611, 1-methyl-2-oxo-N-((1R,3r,5S)-8-((piperidin-4-ylmethyl)sulfonyl)-8-azabicyclo[3.2.1]octan-3-yl)indoline-5-carboxamide]	0.0259 µM	3.92 µM	
Cc1cc2c(cc1C(=O)N[C@H]1C[C@H]3CC[C@@H](C1)N3S(=O)(=O)N1CCC(N)CC1)CC(=O)N2 [compound 606, N-((1R,3r,5S)-8-((4-aminopiperidin-1-yl)sulfonyl)-8-azabicyclo[3.2.1]octan-3-yl)-6-methyl-2-oxoindoline-5-carboxamide]	0.0156 µM	1.79 µM	
NC1CCN(S(=O)(=O)N2[C@@H]3CC[C@H]2C[C@@H](NC(=O)c2cc4c(cc2Br)NC(=O)C4)C3)CC1 [compound 602, N-((1R,3r,5S)-8-((4-aminopiperidin-1-yl)sulfonyl)-8-azabicyclo[3.2.1]octan-3-yl)-6-bromo-2-oxoindoline-5-carboxamide]	0.00712 µM	3.73 µM	
